Measured values as given in US20220401573A1, “COMPOSITION AND METHOD FOR TREATMENT OF MULTIPLE SCLEROSIS” (Wuhan Vast Conduct Science Foundation CO., LTD., priority 2019, published 2022).

System: EAE mice
Assay: Clinical scoring of MOG-induced EAE in mice
Assay type: in vivo, C57BL/6N female mice
Conditions: 10 mg/kg p.o., day 1 to day 28, positive control, FIG. 10
Method: C57BL/6N female mice, 7-9 weeks old, were used. Animals were housed and maintained in compliance with the regulations.
On Day 0, mice were grouped randomly by body weight, and then injected subcutaneously with 200 μg of myelin oligodendrocyte glycoprotein (MOG) peptide in complete Freund's adjuvant (CFA) into the right and left flank, 100 μl per site. Pertussis toxin (PTX) injected by i.p at 0 and 48 hours after MOG immunization. Compounds were given from day 1 to day 28 according to Table 2. The animals (n=10) were scored daily for clinical signs of EAE. At the end of the experiments, spinal cords were used for HE staining (n=5), and analysis of TNF-α, IL-17, IFN-γ by Elisa kit.
The animals were scored daily for clinical signs of EAE according to the Clinical scoring rubric for EAE (Table 3).

SMILES: C[C@]12C=CC(=O)C=C1CC[C@@H]1[C@@H]2C(=O)C[C@@]2(C)[C@H]1CC[C@]2(O)C(=O)CO [prednisone, Prednisone]
- clinical signs of EAE (clinical score): significantly reduced clinical signs of EAE from day 13th
